Biological target: GABA-B receptor (Rattus norvegicus (Rat), UniProt O88871+Q9Z0U4)
Assay: [35S]GTPgS Binding Assay (rat brain cortex membranes, native receptor)
Format: biochemical
Details: rat cortical membranes; in the presence of 1 μM GABA (EC25); basal binding 0%, maximal binding (1 mM GABA) 100%
Procedure: Preparation of Rat Brain Membranes for Native Receptor Assays
Membranes from rat brain cortex were prepared as described in detail by Olpe et al. and stored at concentrations of 1.66 mg/mL protein at −80° C. until required. (Olpe, H.-R, et al. Eur J Pharmacol 1990; 187: 27-38).
[^35S]GTPgS Binding Assay
The samples were incubated at room temperature for 60 minutes on a shaker. The incubation was stopped by rapid vacuum filtration over glass-fiber filter plates (UniFilter-96 well, GF/B membrane plates, PerkinElmer) using a 96-well plate harvester (TOMTEK© Harvester). The UniFilter plate was washed five times with ice-cold wash buffer (50 mM Tris-HCl buffer, pH 7.7, 10 mM MgCl2, and 100 mM NaCl. After filtration the plate was dried for 90 minutes at 55° C. The plates were closed on the bottom with black sealing membranes, and liquid scintillation cocktail (35 μL, Betaplate Scint, PerkinElmer) was added to each well. After sealing the top of the plate, an additional incubation step of 90 minutes at room temperature followed before measuring the plate. The amount of membrane-bound [^35S]GTPgS was measured using a 96-well plate reader (Microbeta®, PerkinElmer). Nonspecific binding was measured in the presence of unlabeled 10 μM of GTPgS (Millipore) and without GABA. Basal binding was measured in the absence of 1 μM GABA, and maximal binding was measured in the presence of GABA using 1 mM GABA concentrations.
Data analysis. The concentration-response curves of compounds of the present disclosure in the presence of EC25 of GABA-B receptor agonist were generated using the GraphPad Prism® program (GraphPad Software, San Diego, Calif.). Data was normalized using basal binding as 0% and maximal binding as 100%. The curves were fitted by nonlinear regression allowing determination of EC50 values from sigmoidal dose-response curves. Each curve was performed using triplicate sample per date point and 10 concentrations.

Chain of GABA-B receptor (Q9Z0U4 17-960): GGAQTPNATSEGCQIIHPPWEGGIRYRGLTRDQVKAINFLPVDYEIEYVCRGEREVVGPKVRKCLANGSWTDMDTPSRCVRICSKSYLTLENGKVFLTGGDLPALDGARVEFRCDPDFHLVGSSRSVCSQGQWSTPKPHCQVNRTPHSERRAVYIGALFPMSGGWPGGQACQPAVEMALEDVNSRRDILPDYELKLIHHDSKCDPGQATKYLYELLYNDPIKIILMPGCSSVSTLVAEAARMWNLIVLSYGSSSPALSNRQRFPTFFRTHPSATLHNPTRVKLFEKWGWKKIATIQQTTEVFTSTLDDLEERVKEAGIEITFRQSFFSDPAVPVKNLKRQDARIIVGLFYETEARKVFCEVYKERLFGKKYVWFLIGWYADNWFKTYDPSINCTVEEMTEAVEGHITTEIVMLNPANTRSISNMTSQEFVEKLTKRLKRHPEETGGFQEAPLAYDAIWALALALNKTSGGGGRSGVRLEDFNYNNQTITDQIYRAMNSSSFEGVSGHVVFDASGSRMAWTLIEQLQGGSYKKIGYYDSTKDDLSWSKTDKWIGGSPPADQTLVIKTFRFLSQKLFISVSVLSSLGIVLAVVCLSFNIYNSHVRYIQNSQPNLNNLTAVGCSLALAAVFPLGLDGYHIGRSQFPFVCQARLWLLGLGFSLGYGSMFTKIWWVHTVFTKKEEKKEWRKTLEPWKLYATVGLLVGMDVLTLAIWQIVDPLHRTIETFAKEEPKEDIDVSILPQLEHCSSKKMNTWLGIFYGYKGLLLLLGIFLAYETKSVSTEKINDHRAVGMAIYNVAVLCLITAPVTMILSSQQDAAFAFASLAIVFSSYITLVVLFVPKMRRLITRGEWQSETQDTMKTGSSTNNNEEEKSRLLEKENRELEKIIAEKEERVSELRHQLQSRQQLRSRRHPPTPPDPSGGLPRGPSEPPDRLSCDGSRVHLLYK
Chain of GABA-B receptor (O88871 41-940): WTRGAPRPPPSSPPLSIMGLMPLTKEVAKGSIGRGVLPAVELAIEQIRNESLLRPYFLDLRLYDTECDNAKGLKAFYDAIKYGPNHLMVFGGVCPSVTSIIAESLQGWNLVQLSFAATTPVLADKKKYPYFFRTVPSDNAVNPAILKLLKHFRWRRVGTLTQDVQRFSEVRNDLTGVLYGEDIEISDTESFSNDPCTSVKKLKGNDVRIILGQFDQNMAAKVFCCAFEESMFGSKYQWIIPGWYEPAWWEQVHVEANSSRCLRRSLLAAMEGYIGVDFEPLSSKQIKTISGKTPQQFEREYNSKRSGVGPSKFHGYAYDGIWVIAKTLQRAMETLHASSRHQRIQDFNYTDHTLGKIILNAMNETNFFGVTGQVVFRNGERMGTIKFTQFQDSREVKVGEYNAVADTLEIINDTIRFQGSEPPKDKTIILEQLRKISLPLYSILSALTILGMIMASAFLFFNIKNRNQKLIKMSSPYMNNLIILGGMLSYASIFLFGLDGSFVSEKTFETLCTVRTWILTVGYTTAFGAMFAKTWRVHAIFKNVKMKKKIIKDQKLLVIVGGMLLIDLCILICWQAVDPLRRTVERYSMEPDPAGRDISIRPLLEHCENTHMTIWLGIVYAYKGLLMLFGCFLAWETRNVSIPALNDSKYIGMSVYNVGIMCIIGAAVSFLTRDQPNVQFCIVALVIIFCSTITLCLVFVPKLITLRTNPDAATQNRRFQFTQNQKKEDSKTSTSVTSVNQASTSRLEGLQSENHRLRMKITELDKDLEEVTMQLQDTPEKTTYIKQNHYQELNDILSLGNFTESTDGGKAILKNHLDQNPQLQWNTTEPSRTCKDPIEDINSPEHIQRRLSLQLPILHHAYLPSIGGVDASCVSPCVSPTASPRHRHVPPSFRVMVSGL

EC50	SMILES
1.66 µM	Cc1noc2c(-c3cc(F)nc(F)c3)nn(C(C)c3ccc(Cl)cc3)c(=O)c12 (stereo not shown) [Example 4, 5-[1-(4-chlorophenyl)ethyl]-7-(2,6-difluoropyridin-4-yl)-3-methyl[1,2]oxazolo[4,5-d]pyridazin-4(5H)-one]
2.69 µM	Cc1noc2c(-c3cncc(F)c3)nn(C(C)c3ccc(Cl)cc3)c(=O)c12 (stereo not shown) [Example 22, 5-[1-(4-chlorophenyl)ethyl]-7-(5-fluoropyridin-3-yl)-3-methyl[1,2]oxazolo[4,5-d]pyridazin-4(5H)-one]
1.21 µM	Cc1noc2c(-c3cccnc3)nn(C(C)c3ccc(Cl)cc3)c(=O)c12 (stereo not shown) [Example 109, 5-[1-(4-chlorophenyl)ethyl]-3-methyl-7-(pyridin-3-yl)[1,2]oxazolo[4,5-d]pyridazin-4(5H)-one]
> 10 µM	Cc1nn(CCc2ccc(Cl)cc2)c(=O)c2c(C)noc12 [Example 60, 5-[2-(4-chlorophenyl)ethyl]-3,7-dimethyl[1,2]oxazolo[4,5-d]pyridazin-4(5H)-one]
1.58 µM	Cc1noc2c(-c3ccc(F)cc3)nn(Cc3ccc(C(F)(F)F)cc3)c(=O)c12 [Example 19, 7-(4-fluorophenyl)-3-methyl-5-[4-(trifluoromethyl)benzyl][1,2]oxazolo[4,5-d]pyridazin-4(5H)-one]
3.8 µM	Cc1nn(C(C)c2ccc(Cl)cc2)c(=O)c2c(C)noc12 (stereo not shown) [Example 114, 5-[1-(4-chlorophenyl)ethyl]-3,7-dimethyl[1,2]oxazolo[4,5-d]pyridazin-4(5H)-one]
2.62 µM	CC(=O)Nc1cccc(-c2nn(Cc3cc(C(F)(F)F)ccc3F)c(=O)c3c(C)noc23)c1 [Example 85, N-(3-{5-[2-fluoro-5-(trifluoromethyl)benzyl]-3-methyl-4-oxo-4,5-dihydro[1,2]oxazolo[4,5-d]pyridazin-7-yl}phenyl)acetamide]
7.7 µM	CC(=O)Nc1cccc(-c2nn([C@@H](C)c3ccc(Cl)cc3)c(=O)c3c(C)noc23)c1 [Example 72, N-(3-{5-[(1S)-1-(4-chlorophenyl)ethyl]-3-methyl-4-oxo-4,5-dihydro[1,2]oxazolo[4,5-d]pyridazin-7-yl}phenyl)acetamide]
0.105 µM	COc1ccc(NC(C)=O)cc1-c1nn(C(C)c2ccc(Cl)cc2)c(=O)c2c(C)noc12 (stereo not shown) [Example 39, N-(3-{5-[1-(4-chlorophenyl)ethy]-3-methyl-4-oxo-4,5-dihydro[1,2]oxazolo[4,5-d]pyridazin-7-yl}-4-methoxyphenyl)acetamide]
0.376 µM	COc1ccc(NC(C)=O)cc1-c1nn(Cc2ccc(Cl)cc2)c(=O)c2c(C)noc12 [Example 45, N-{3-[5-(4-chlorobenzyl)-3-methyl-4-oxo-4,5-dihydro[1,2]oxazolo[4,5-d]pyridazin-7-yl]-4-methoxyphenyl}acetamide]
0.222 µM	Cc1ccc(O)cc1-c1nn(C(C)c2ccc(Cl)cc2)c(=O)c2c(C)noc12 (stereo not shown) [Example 16, 5-[1-(4-chlorophenyl)ethyl]-7-(5-hydroxy-2-methylphenyl)-3-methyl[1,2]oxazolo[4,5-d]pyridazin-4(5H)-one]
0.023 µM	CNC(=O)c1ccc(OC)c(-c2nn([C@@H](C)c3ccc(Cl)cc3)c(=O)c3c(C)noc23)c1 [Example 82, 3-{5-[(1S)-1-(4-chlorophenyl)ethyl]-3-methyl-4-oxo-4,5-dihydro[1,2]oxazolo[4,5-d]pyridazin-7-yl}-4-methoxy-N-methylbenzamide]
0.048 µM	COc1ccc(OC)c(-c2nn([C@@H](C)c3ccc(Cl)cc3)c(=O)c3c(C4CC4)noc23)c1 [Example 68, 5-[(1S)-1-(4-chlorophenyl)ethyl]-3-cyclopropyl-7-(2,5-dimethoxyphenyl)[1,2]oxazolo[4,5-d]pyridazin-4(5H)-one]
2.13 µM	Cc1noc2c(-c3ccccc3N)nn(C(C)c3ccc(Cl)cc3)c(=O)c12 (stereo not shown) [Example 14, 7-(2-aminophenyl)-5-[1-(4-chlorophenyl)ethyl]-3-methyl[1,2]oxazolo[4,5-d]pyridazin-4(5H)-one]
1.96 µM	Cc1noc2c(-c3cc(Cl)ccc3N)nn(C(C)c3ccc(Cl)cc3)c(=O)c12 (stereo not shown) [Example 6, 7-(2-amino-5-chlorophenyl)-5-[1-(4-chlorophenyl)ethyl]-3-methyl[1,2]oxazolo[4,5-d]pyridazin-4(5H)-one]
2.93 µM	COc1ccccc1-c1nn(Cc2ccc(C(F)(F)F)cc2)c(=O)c2c(C)noc12 [Example 118, 7-(2-methoxyphenyl)-3-methyl-5-[4-(trifluoromethyl)benzyl][1,2]oxazolo[4,5-d]pyridazin-4(5H)-one]

EC50	SMILES
1.55 µM	COc1ccc(-c2nn(Cc3cc(C(F)(F)F)ccc3F)c(=O)c3c(C)noc23)c(OC)c1 [Example 48, 7-(2,4-dimethoxyphenyl)-5-[2-fluoro-5-(trifluoromethyl)benzyl]-3-methyl[1,2]oxazolo[4,5-d]pyridazin-4(5H)-one]
0.051 µM	COc1ccc(NC(C)=O)cc1-c1nn([C@@H](C)c2ccc(Cl)cc2)c(=O)c2c(C3CC3)noc12 [Example 1, N-(3-{5-[(1S)-1-(4-chlorophenyl)ethyl]-3-cyclopropyl-4-oxo-4,5-dihydro[1,2]oxazolo[4,5-d]pyridazin-7-yl}-4-methoxyphenyl)acetamide]
> 10 µM	COc1ccc(NC(C)=O)cc1-c1nn([C@H](C)c2ccc(Cl)cc2)c(=O)c2c(C)noc12 [Example 40, N-(3-{5-[(1R)-1-(4-chlorophenyl)ethyl]-3-methyl-4-oxo-4,5-dihydro[1,2]oxazolo[4,5-d]pyridazin-7-yl}-4-methoxyphenyl)acetamide]
1.2 µM	COc1ccccc1-c1nn(Cc2ccc(F)c(C(F)(F)F)c2)c(=O)c2c(C)noc12 [Example 54, 5-[4-fluoro-3-(trifluoromethyl)benzyl]-7-(2-methoxyphenyl)-3-methyl[1,2]oxazolo[4,5-d]pyridazin-4(5H)-one]
0.45 µM	COc1ccc(C(=O)N2CCCC2)cc1-c1nn(C(C)c2ccc(Cl)cc2)c(=O)c2c(C)noc12 (stereo not shown) [Example 98, 5-[1-(4-chlorophenyl)ethyl]-7-[2-methoxy-5-(pyrrolidin-1-ylcarbonyl)phenyl]-3-methyl[1,2]oxazolo[4,5-d]pyridazin-4(5H)-one]
1.85 µM	Cc1noc2c(-c3cccc(N)c3C(N)=O)nn(C(C)c3ccc(Cl)cc3)c(=O)c12 (stereo not shown) [Example 65, 2-amino-6-{5-[1-(4-chlorophenyl)ethyl]-3-methyl-4-oxo-4,5-dihydro[1,2]oxazxazolo[4,5-d]pyridazin-7-yl}benzamide]
1.81 µM	Cc1nn([C@@H](C)c2ccc(Cl)cc2)c(=O)c2c(C)noc12 (single isomer, unassigned) [Example 31]
0.846 µM	COc1ccc(OC)c(-c2nn(Cc3ccc(Cl)cc3)c(=O)c3c(C)noc23)c1 [Example 102, 5-(4-chlorobenzyl)-7-(2,5-dimethoxyphenyl)-3-methyl[1,2]oxazolo[4,5-d]pyridazin-4(5H)-one]
0.562 µM	CC(=O)Nc1ccc(C)c(-c2nn([C@H](C)c3ccc(C(F)(F)F)cc3)c(=O)c3c(C)noc23)c1 [Example 35, N-[4-methyl-3-(3-methyl-4-oxo-5-{(1R)-1-[4-(trifluoromethyl)phenyl]ethyl}-4,5-dihydro[1,2]oxazolo[4,5-d]pyridazin-7-yl)phenyl]acetamide]
0.847 µM	Cc1noc2c(-c3cccc(C(N)=O)c3)nn(C(C)c3ccc(Cl)cc3)c(=O)c12 (stereo not shown) [Example 106, 3-{5-[1-(4-chlorophenyl)ethyl]-3-methyl-4-oxo-4,5-dihydro[1,2]oxazolo[4,5-d]pyridazin-7-yl}benzamide]
> 10 µM	Cc1nn([C@H](C)c2ccc(Cl)cc2)c(=O)c2c(C)noc12 (single isomer, unassigned) [Example 58]
0.08 µM	COc1ccc(NS(C)(=O)=O)cc1-c1nn(C(C)c2ccc(Cl)cc2)c(=O)c2c(C)noc12 (stereo not shown) [Example 55, N-(3-{5-[1-(4-chlorophenyl)ethyl]-3-methyl-4-oxo-4,5-dihydro[1,2]oxazolo[4,5-d]pyridazin-7-yl}-4-methoxyphenyl)methanesulfonamide]
0.389 µM	CC(=O)Nc1ccc(C)c(-c2nn(C(C)c3ccc(Cl)cc3)c(=O)c3c(C)noc23)c1 (stereo not shown) [Example 18, N-(3-{5-[1-(4-chlorophenyl)ethyl]-3-methyl-4-oxo-4,5-dihydro[1,2]oxazolo[4,5-d]pyridazin-7-yl}-4-methylphenyl)acetamide]
3.09 µM	Cc1noc2c(-c3ccc(F)cc3)nn(Cc3ccc(Cl)cc3)c(=O)c12 [Example 83, 5-(4-chlorobenzyl)-7-(4-fluorophenyl)-3-methyl[1,2]oxazolo[4,5-d]pyridazin-4(5H)-one]
1.5 µM	CC(=O)Nc1cccc(-c2nn(Cc3ccc(Cl)cc3)c(=O)c3c(C4CC4)noc23)c1 [Example 51, N-{3-[5-(4-chlorobenzyl)-3-cyclopropyl-4-oxo-4,5-dihydro[1,2]oxazolo[4,5-d]pyridazin-7-yl]phenyl}acetamide]

— patent publication US10556914B2, “Substituted isoxazolopyridazinones and isothiazolopyridazinones and methods of use” (AbbVie Inc., priority 2015, dated 2020)
